Patent US9694019B2, “Compositions and methods for treating bone diseases and broken bones” (BRIGHAM YOUNG UNIVERSITY, priority 2011, dated 2017)
Residues, ends and D or L forms follow the SMILES beside them. *: point of attachment. Cbz = O=C(OCc1ccccc1)*; OtBu = CC(C)(C)O*

Tested on: primary human MSC cells
Assay: BMP regulation: gene expression array (SABiosciences PAHS-026) in primary human MSC cells
Type: cell-based
Settings: hMSC, 8 hours
Procedure: SABisosciences custom array plates (Cat#PAHS-026) were used to measure BMP expression. These array plates are validated for efficiency when used at recommended conditions and reagents. On day 1, primary human MSC cells were plated at 200,000 cell/well using 6-well plates with 10% FBS, Penicillin and Streptomycin 10 mL per Liter, in recommended media. Only early passages of cells were used.
On day 2, cells were treated with compounds dissolved in DMSO diluted 1:1000 or more to avoid solvent effects. A non-treated negative control group was evaluated (FIG. 1, “Control Group”) along with a positive control group containing PS1 at 0.1 μM (FIG. 1, “Group 1”). Final testing concentration for CSA-90 was 5.0 μM (FIG. 1, “Group 2”), 2.5 μM (FIG. 1, “Group 3”), and 1.2 μM (FIG. 1, “Group 4”). Treatment lasted 8 hours, followed by RNA isolation using a QIAGEN Miniprep Kit. RNA was measured at 260/280 nm using NanoDrop2000 and normalized to 250 ng. cDNA preparation was done using QIAGEN First Strand kit.

[1] = PS1 0.1 μM, v. untreated control

`CC[C@H](C)[C@H](NC(=O)OCc1ccccc1)C(=O)N[C@@H](CCC(=O)OC(C)(C)C)C(=O)N[C@@H](C)C(=O)N[C@H](C=O)CC(C)C` [PS1, reference compound] (Cbz-IE(OtBu)AL-aldehyde) was tested, and the “up-regulation of BMP-2 mRNA compared to the control” value (0.1 μM) was 3 fold, the “Fold Up-Regulation ACTB (Actin, beta)” value [1] was −1.4183 fold and the “Fold Up-Regulation AHSG (Alpha-2-HS-glycoprotein)” value [1] was −1.3295 fold. The “Fold Up-Regulation ALPL (Alkaline phosphatase, liver/bone/kidney)” value [1] was −1.4723 fold, the “Fold Up-Regulation AMBN (Ameloblastin)” value [1] was −1.9272 fold and the “Fold Up-Regulation AMELY (Amelogenin, Y-linked)” value [1] was −1.8864 fold. The “Fold Up-Regulation ANXA5 (Annexin A5)” value [1] was 1.1236 fold, the “Fold Up-Regulation BGLAP (Bone gamma-carboxyglutamate (gla) protein)” value [1] was −1.3879 fold and the “Fold Up-Regulation BGN (Biglycan)” value [1] was −1.1323 fold. The “Fold Up-Regulation BMP-1 (Bone morphogenetic protein 1)” value [1] was −1.1214 fold, the “Fold Up-Regulation BMP-2 (Bone morphogenetic protein 2)” value [1] was 3.0816 fold and the “Fold Up-Regulation BMP-3 (Bone morphogenetic protein 3)” value [1] was −1.1038 fold. For the same compound, the “Fold Up-Regulation BMP-4 (Bone morphogenetic protein 4)” value [1] was −2.2148 fold, the “Fold Up-Regulation BMP-5 (Bone morphogenetic protein 5)” value [1] was 1.124 fold and the “Fold Up-Regulation BMP-6 (Bone morphogenetic protein 6)” value [1] was 2.642 fold. For the same compound, the “Fold Up-Regulation CALCR (CALCITONIN RECEPTOR)” value [1] was 1.124 fold, the “Fold Up-Regulation CD36 (CD36 molecule, thrombospondin receptor)” value [1] was −1.0202 fold and the “Fold Up-Regulation CDH11 (Cadherin 11, type 2, OB-cadherin)” value [1] was −2.2309 fold. The “Fold Up-Regulation COL1A1 (Collagen, type I, alpha 1)” value [1] was −1.1935 fold, the “Fold Up-Regulation COL1A2 (Collagen, type I, alpha 2)” value [1] was −1.0689 fold and the “Fold Up-Regulation COL2A1 (Collagen, type II, alpha 1)” value [1] was −1.4242 fold. For the same compound, the “Fold Up-Regulation COL3A1 (Collagen, type III, alpha 1)” value [1] was −1.0806 fold, the “Fold Up-Regulation COL4A3 (Collagen, type IV, alpha 3)” value [1] was −1.0619 fold and the “Fold Up-Regulation COL5A1 (Collagen, type V, alpha 1)” value [1] was 1.0927 fold. The “Fold Up-Regulation COL10A1 (Collagen, type X, alpha 1)” value [1] was 1.5421 fold, the “Fold Up-Regulation COL11A1 (Collagen, type XI, alpha 1)” value [1] was −1.4875 fold and the “Fold Up-Regulation COL12A1 (Collagen, type XII, alpha 1)” value [1] was 1.0767 fold. For the same compound, the “Fold Up-Regulation COL14A1 (Collagen, type XIV, alpha 1)” value [1] was −1.5279 fold, the “Fold Up-Regulation COL15A1 (Collagen, type XV, alpha 1)” value [1] was 1.2144 fold and the “Fold Up-Regulation COMP (Cartilage oligomeric matrix protein)” value [1] was 1.2648 fold. For the same compound, the “Fold Up-Regulation CSF2 (Colony stimulating factor 2)” value [1] was 6.205 fold, the “Fold Up-Regulation CSF3 (Colony stimulating factor 3)” value [1] was −2.4364 fold and the “Fold Up-Regulation CTSK (Cathepsin K)” value [1] was −1.2679 fold. The “Fold Up-Regulation DMP1 (Dentin matrix acidic phosphoprotein 1)” value [1] was 1.124 fold, the “Fold Up-Regulation DSPP (Dentin sialophosphoprotein)” value [1] was 1.124 fold and the “Fold Up-Regulation EGF (Epidermal growth factor)” value [1] was −1.2529 fold. For the same compound, the “Fold Up-Regulation EGFR (Epidermal growth factor receptor)” value [1] was −1.8532 fold, the “Fold Up-Regulation ENAM (Enamelin)” value [1] was 1.124 fold and the “Fold Up-Regulation FGF1 (Fibroblast growth factor 1)” value [1] was −1.4948 fold. The “Fold Up-Regulation FGF2 (Fibroblast growth factor 2)” value [1] was 1.3957 fold, the “Fold Up-Regulation FGF3 (Fibroblast growth factor 3)” value [1] was −1.3257 fold and the “Fold Up-Regulation FGFR1 (Fibroblast growth factor receptor 1)” value [1] was −1.0999 fold. The “Fold Up-Regulation FGFR2 (Fibroblast growth factor receptor 2)” value [1] was −1.2644 fold, the “Fold Up-Regulation FLT1 (Fms-related tyrosine kinase 1)” value [1] was −2.7821 fold and the “Fold Up-Regulation FN1 (Fibronectin 1)” value [1] was 1.099 fold. For the same compound, the “Fold Up-Regulation GAPDH (Glyceraldehyde-3-phosphate dehydrogenase)” value [1] was 1.161 fold, the “Fold Up-Regulation GDF10 (Growth differentiation factor 10)” value [1] was 1.124 fold and the “Fold Up-Regulation ICAM1 (Intercellular adhesion molecule 1)” value [1] was 1.5053 fold. For the same compound, the “Fold Up-Regulation IGF1 (Insulin-like growth factor 1)” value [1] was 1.5067 fold, the “Fold Up-Regulation IGF1R (Insulin-like growth factor 1 receptor)” value [1] was −1.0699 fold and the “Fold Up-Regulation IGF2 (Insulin-like growth factor 2)” value [1] was −1.2388 fold. For the same compound, the “Fold Up-Regulation ITGA1 (Integrin, alpha 1)” value [1] was 1.325 fold, the “Fold Up-Regulation ITGA2 (Integrin, alpha 2)” value [1] was −1.0945 fold and the “Fold Up-Regulation ITGA3 (Integrin, alpha 3)” value [1] was −1.8917 fold. For the same compound, the “Fold Up-Regulation ITGAM (Integrin, alpha M)” value [1] was 1.3319 fold, the “Fold Up-Regulation ITGB1 (Integrin, beta 1)” value [1] was 1.1614 fold and the “Fold Up-Regulation MMP2 (Matrix metallopeptidase 2)” value [1] was −1.1194 fold. For the same compound, the “Fold Up-Regulation MMP8 (Matrix metallopeptidase 8)” value [1] was 3.7453 fold, the “Fold Up-Regulation MMP9 (Matrix metallopeptidase 9)” value [1] was −1.2449 fold and the “Fold Up-Regulation MMP10 (Matrix metallopeptidase 10)” value [1] was 1.3516 fold. The “Fold Up-Regulation MSX1 (Msh homeobox 1)” value [1] was 6.2916 fold, the “Fold Up-Regulation NFKB1 (Nuclear factor of kappa light polypeptide gene enhancer in B-cells 1)” value [1] was −1.1038 fold and the “Fold Up-Regulation PDGFA (Platelet-derived growth factor alpha polypeptide)” value [1] was 1.0421 fold. For the same compound, the “Fold Up-Regulation PHEX (Phosphate regulating endopeptidase homolog, Xlinked)” value [1] was 1.9871 fold, the “Fold Up-Regulation RUNX2 (Runt-related transcription factor 2)” value [1] was −3.542 fold and the “Fold Up-Regulation SCARB1 (Scavenger receptor class B, member 1)” value [1] was 1.1791 fold. For the same compound, the “Fold Up-Regulation SERPIN H1 (Serpin peptidase inhibitor, clade H, member 1)” value [1] was 1.4764 fold, the “Fold Up-Regulation SMAD1 (SMAD family member 1)” value [1] was −1.2813 fold and the “Fold Up-Regulation SMAD2 (SMAD family member 2)” value [1] was 1.0462 fold. The “Fold Up-Regulation SMAD3 (SMAD family member 3)” value [1] was −2.771 fold, the “Fold Up-Regulation SMAD4 (SMAD family member 4)” value [1] was 1.3022 fold and the “Fold Up-Regulation STATH (Statherin)” value [1] was −2.2674 fold. The “Fold Up-Regulation TFIP11 (Tuftelin interacting protein 11)” value [1] was 1.1041 fold, the “Fold Up-Regulation TGFB1 (Transforming growth factor, beta 1)” value [1] was −1.2644 fold and the “Fold Up-Regulation TGFB2 (Transforming growth factor, beta 2)” value [1] was 1.0081 fold. The “Fold Up-Regulation TGFB3 (Transforming growth factor, beta 3)” value [1] was 2.2234 fold, the “Fold Up-Regulation TGFBR1 (Transforming growth factor, beta receptor 1)” value [1] was 2.0059 fold and the “Fold Up-Regulation TGFBR2 (Transforming growth factor, beta receptor II)” value [1] was −2.3752 fold. For the same compound, the “Fold Up-Regulation TNF (Tumor necrosis factor)” value [1] was 1.8055 fold, the “Fold Up-Regulation TUFT1 (Tuftelin 1)” value [1] was 1.4326 fold and the “Fold Up-Regulation TWIST1 (Twist homolog 1)” value [1] was −2.197 fold. The “Fold Up-Regulation VCAM1 (Vascular cell adhesion molecule 1)” value [1] was −2.406 fold, the “Fold Up-Regulation VDR (Vitamin D (1,25-dihydroxyvitamin D3) receptor)” value [1] was −1.5248 fold and the “Fold Up-Regulation VEGFA (Vascular endothelial growth factor A)” value [1] was −1.0162 fold. For the same compound, the “Fold Up-Regulation VEGFB (Vascular endothelial growth factor B)” value [1] was −1.1191 fold.
